Test results from ChEMBL document CHEMBL5532702, “Coumarin-furo[2,3-d]pyrimidone hybrid molecules targeting human liver cancer cells: synthesis, anticancer effect, EGFR inhibition and molecular docking studies” (RSC Med Chem, 2024).
Activity calls are given as the source filed them. No cut-off for these calls is given here.

tested on: HepG2; experiment: Inhibition of cell invasion in human HepG2 cells at 5.42 to 27.10 micromol/L incubated for 24 hrs by crystal violet staining based microscopic analysis; format: functional; conditions: dose 5.42-27.1 µmol/L

With `CCN(CC)c1nc2oc(C)c(C(=O)NN)c2c(=O)n1-c1ccc(C)cc1` as the compound, how does the inhibition read?
The inhibition was “Active”.

tested on: HepG2; experiment: Cytotoxicity against human HepG2 cells assessed as reduction in cell viability incubated for 48 hrs by CCK-8 assay; conditions: HepG2, 48 h

With `Cc1cccc(-n2c(N3CCOCC3)nc3oc(C)c(C(=O)NNC(=O)c4cc5ccccc5oc4=O)c3c2=O)c1` as the compound, how does the IC50 read?
The IC50 was 26.8 µM.

For `CCCNc1nc2oc(C)c(C(=O)NN)c2c(=O)n1-c1ccc(C)cc1`, which IC50 is on record?
Its IC50 is 84.1 µM.

`Cc1cccc(-n2c(N3CCOCC3)nc3oc(C)c(C(=O)NN)c3c2=O)c1` was tested. Which IC50 did it give?
Its IC50 is 40.8 µM.

How did the IC50 turn out when `CCCN(CCC)c1nc2oc(C)c(C(=O)NNC(=O)c3cc4ccccc4oc3=O)c2c(=O)n1-c1ccccc1` was run?
The IC50 was 14.3 µM.

How did the IC50 turn out when `CCCCNc1nc2oc(C)c(C(=O)NN)c2c(=O)n1-c1ccccc1` was run?
Its IC50 is over 100 µM.

With `CCCNc1nc2oc(C)c(C(=O)NN)c2c(=O)n1-c1ccccc1` as the compound, how does the IC50 read?
The IC50 was 69.3 µM.

With `CCCNc1nc2oc(C)c(C(=O)NNC(=O)c3cc4ccccc4oc3=O)c2c(=O)n1-c1ccccc1` as the compound, how does the IC50 read?
The IC50 was 7.72 µM.

`CCCNc1nc2oc(C)c(C(=O)NN)c2c(=O)n1-c1cccc(C)c1` was tested. Which IC50 did it give?
The IC50 was 58.9 µM.

`CCN(CC)c1nc2oc(C)c(C(=O)NN)c2c(=O)n1-c1ccccc1` was tested. Which IC50 did it give?
Its IC50 is 30.7 µM.

With `CCN(CC)c1nc2oc(C)c(C(=O)NNC(=O)c3cc4ccccc4oc3=O)c2c(=O)n1-c1cccc(C)c1` as the compound, how does the IC50 read?
The IC50 was 26.5 µM.

For `CCCN(CCC)c1nc2oc(C)c(C(=O)NNC(=O)c3cc4ccccc4oc3=O)c2c(=O)n1-c1ccc(C)cc1`, which IC50 is on record?
The IC50 was 22.2 µM.

For `CCCCNc1nc2oc(C)c(C(=O)NN)c2c(=O)n1-c1ccc(C)cc1`, which IC50 is on record?
Its IC50 is over 100 µM.

With `CCCCNc1nc2oc(C)c(C(=O)NNC(=O)c3cc4ccccc4oc3=O)c2c(=O)n1-c1cccc(C)c1` as the compound, how does the IC50 read?
The IC50 was 13 µM.

Which IC50 does the source give for `CCCCNc1nc2oc(C)c(C(=O)NNC(=O)c3cc4ccccc4oc3=O)c2c(=O)n1-c1ccccc1` here?
The IC50 was 8.74 µM.

With `CCCN(CCC)c1nc2oc(C)c(C(=O)NN)c2c(=O)n1-c1ccccc1` as the compound, how does the IC50 read?
The IC50 was 17 µM.

`CCN(CC)c1nc2oc(C)c(C(=O)NNC(=O)c3cc4ccccc4oc3=O)c2c(=O)n1-c1ccc(C)cc1` was tested. Which IC50 did it give?
The IC50 was over 100 µM.

`CCN(CC)c1nc2oc(C)c(C(=O)NN)c2c(=O)n1-c1cccc(C)c1` was tested. Which IC50 did it give?
Its IC50 is 36.5 µM.

How did the IC50 turn out when `CCCCNc1nc2oc(C)c(C(=O)NN)c2c(=O)n1-c1cccc(C)c1` was run?
Its IC50 is 73.9 µM.

Which IC50 does the source give for `CCN(CC)c1nc2oc(C)c(C(=O)NN)c2c(=O)n1-c1ccc(C)cc1` here?
Its IC50 is 17.2 µM.

How did the IC50 turn out when `CNC(=O)c1cc(Oc2ccc(NC(=O)Nc3ccc(Cl)c(C(F)(F)F)c3)cc2)ccn1` [SORAFENIB] was run?
Its IC50 is 12.3 µM.

For `Cc1ccc(-n2c(N3CCOCC3)nc3oc(C)c(C(=O)NNC(=O)c4cc5ccccc5oc4=O)c3c2=O)cc1`, which IC50 is on record?
Its IC50 is 40 µM.

For `Cc1ccc(-n2c(N3CCOCC3)nc3oc(C)c(C(=O)NN)c3c2=O)cc1`, which IC50 is on record?
Its IC50 is 55.9 µM.

How did the IC50 turn out when `Cc1oc2nc(N3CCOCC3)n(-c3ccccc3)c(=O)c2c1C(=O)NN` was run?
The IC50 was 45.1 µM.

For `CCCN(CCC)c1nc2oc(C)c(C(=O)NN)c2c(=O)n1-c1ccc(C)cc1`, which IC50 is on record?
Its IC50 is 8.53 µM.

How did the IC50 turn out when `CCCCNc1nc2oc(C)c(C(=O)NNC(=O)c3cc4ccccc4oc3=O)c2c(=O)n1-c1ccc(C)cc1` was run?
Its IC50 is 14.5 µM.

With `CCCNc1nc2oc(C)c(C(=O)NNC(=O)c3cc4ccccc4oc3=O)c2c(=O)n1-c1ccc(C)cc1` as the compound, how does the IC50 read?
The IC50 was 21.8 µM.

Which IC50 does the source give for `CCCNc1nc2oc(C)c(C(=O)NNC(=O)c3cc4ccccc4oc3=O)c2c(=O)n1-c1cccc(C)c1` here?
Its IC50 is 24.3 µM.

`CCN(CC)c1nc2oc(C)c(C(=O)NNC(=O)c3cc4ccccc4oc3=O)c2c(=O)n1-c1ccccc1` was tested. Which IC50 did it give?
Its IC50 is 7.89 µM.

How did the IC50 turn out when `Cc1oc2nc(N3CCOCC3)n(-c3ccccc3)c(=O)c2c1C(=O)NNC(=O)c1cc2ccccc2oc1=O` was run?
The IC50 was 24.2 µM.

tested on: HepG2; experiment: Inhibition of cell migration in human HepG2 cells at 5.42 to 27.10 micromol/L incubated for 24 hrs by crystal violet staining based microscopic analysis; format: functional; conditions: dose 5.42-27.1 µmol/L

For `CCN(CC)c1nc2oc(C)c(C(=O)NN)c2c(=O)n1-c1ccc(C)cc1`, which inhibition is on record?
The inhibition was “Active”.
